Consider eleven compounds from paper PMC4671956, “Exploiting Transient Protein States for the Design of Small-Molecule Stabilizers of Mutant p53” (Structure(London, England:1993), 2015).

For orientation: Kd means the concentration at which binding is half-saturated.

Bounds are passed on as bounds.

The target in assay [1] is T1, p53 Y220C mutant (Homo sapiens, UniProt P04637, M133L/N239Y/N268D/V203A/Y220C). On the set-up: method as in Boeckler et al., 2008. The following applies: ref Boeckler et al., 2008; cited from earlier work.
Assay [2] deals with T1, p53 Y220C mutant. Further details: method as in Boeckler et al., 2008. The following applies: ref Boeckler et al., 2008; cited from earlier work. The source holds these as a separate data set.
Assay [3] deals with T1, p53 Y220C mutant. Description: Dissociation constant by nuclear magnetic resonance spectroscopy (NMR). The class given is binding. On the procedure:
(§1) Dissociation constants for the binding of ligands to the p53 Y220C mutant were determined by either nuclear magnetic resonance spectroscopy or isothermal calorimetry as described by [Wilcken et al. (2012a)].

The target of assay [4] is T1, p53 Y220C mutant. Nature of the assay: Dissociation constant by isothermal calorimetry (ITC). The class given is binding. On the procedure: as §1
In assay [5] the test system is cancer cell lines expressing the Y220C mutant. Further details: method as in Liu et al., 2013. The following applies: ref Liu et al., 2013; cited from earlier work.
Setting [6] is: NMR, p53-Y220C ligand complex, read-out: KD.

In the case of `CCn1c2ccccc2c2cc(CNC)ccc21` [Compound 1, PhiKan083], the “effect on rate of aggregation” value on p53 Y220C mutant [1] was “slows down its rate of aggregation”. On p53 Y220C mutant [2], the “effect on melting temperature of the protein” value is recorded as “raises the melting temperature of the protein”. As to `CCc1cccc2c(C3CCNCC3)c[nH]c12` [Compound 2], at p53 Y220C mutant [3] (setting [6]), the Kd came out at 470 ± 90 µM. As for `O=C(O)c1cc(I)cc(I)c1O` [Compound 4], the “ligand efficiency [LE]” value on p53 Y220C mutant [3] (from KD = 820 μM (NMR)) is reported as 0.35 kcal/mol per non-hydrogen atom. As to `CCc1cc(Br)cc2c(CCN)c(C)[nH]c12` [Compound 6], the affinity at p53 Y220C mutant [3], expressed as Kd, was 940 ± 110 µM. Turning to `CN(C)CCn1cc(-c2ccc(F)cc2)c(-n2cccc2)n1` [Compound 7, PhiKan7242], on p53 Y220C mutant [3] (setting [6]), the Kd worked out at 2400 µM. `Nc1ccc(C(F)(F)F)cc1N` [Compound 8]: the Kd on p53 Y220C mutant [3] (setting [6]) was over 10000 µM. For `O=C(O)c1cc(I)c(-n2cccc2)c(I)c1O` [Compound 9], the affinity at p53 Y220C mutant [4] (ITC, p53-Y220C ligand complex), expressed as Kd, was 21 µM. At p53 Y220C mutant [4] (compound 9 relative to scaffold 4 without pyrrole), this compound displayed an increase in affinity of 40 fold. In addition, the “ligand efficiency [LE]” value on p53 Y220C mutant [4] (from KD = 21 μM (ITC)) is listed as 0.38 kcal/mol per non-hydrogen atom. Turning to `c1ccn(-c2oc(C3CC3)nc2-c2nnn[nH]2)c1` [Compound 10], the Kd on p53 Y220C mutant [3] (setting [6]) was over 2000 µM.

For the compound `Nc1cc(C(F)(F)F)cc(Br)c1N` [Compound 11], the Kd on p53 Y220C mutant [3] (setting [6]) was 4800 µM.

Turning to `O=C(Nc1ccc(Cl)cc1O)C1CCNCC1` [Compound 12], the Kd at p53 Y220C mutant [3] (setting [6]) amounted to 1270 µM. In the case of `Cn1cc(-c2ccccc2)c(-n2cccc2)n1` [PhiKan7088], the “biological activity in cancer cell lines” value in assay [5] is on record as “biologically active”.
